Tested on: 598228-144-R-J1-PDC complex spheroid viability
Assay: Anticancer human tumor 598228-144-R-J1-PDC patient-derived serous endometrial adenocarcinoma cell line growth inhibition [GQUAD]
Settings: for IC50: curve of first compound; for viability, T/C: stronger effect = lower value
Procedure, shortened: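 Multi-cell-type spheroids of tumor cells with HUVEC and mesenchymal stem cells, treated with drug combinations. Concentrations descend in half-log steps from near clinical Cmax, or from 10 microM where Cmax is unknown; viability read-out.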

[1] = second compound 0.0316 µM, first compound 0.0316 µM
[2] = second compound 0.0316 µM, first compound 0.1 µM
[3] = second compound 0.0316 µM, first compound 0.316 µM
[4] = second compound 0.0316 µM, first compound 1 µM
[5] = second compound 0.0316 µM, first compound 3.16 µM
[6] = second compound 0.0316 µM, first compound 10 µM
[7] = second compound 0.1 µM, first compound 0.0316 µM
[8] = second compound 0.1 µM, first compound 0.1 µM
[9] = second compound 0.1 µM, first compound 0.316 µM
[10] = second compound 0.1 µM, first compound 1 µM
[11] = second compound 0.1 µM, first compound 3.16 µM
[12] = second compound 0.1 µM, first compound 10 µM
[13] = second compound 0.316 µM, first compound 0.0316 µM
[14] = second compound 0.316 µM, first compound 0.1 µM
[15] = second compound 0.316 µM, first compound 0.316 µM
[16] = second compound 0.316 µM, first compound 1 µM
[17] = second compound 0.316 µM, first compound 3.16 µM
[18] = second compound 0.316 µM, first compound 10 µM
[19] = second compound 1 µM, first compound 0.0316 µM
[20] = second compound 1 µM, first compound 0.1 µM
[21] = second compound 1 µM, first compound 0.316 µM
[22] = second compound 1 µM, first compound 1 µM
[23] = second compound 1 µM, first compound 3.16 µM
[24] = second compound 1 µM, first compound 10 µM
[25] = second compound 3.16 µM, first compound 0.0316 µM
[26] = second compound 3.16 µM, first compound 0.1 µM
[27] = second compound 3.16 µM, first compound 0.316 µM
[28] = second compound 3.16 µM, first compound 1 µM
[29] = second compound 3.16 µM, first compound 3.16 µM
[30] = second compound 3.16 µM, first compound 10 µM
[31] = second compound 10 µM, first compound 0.0316 µM
[32] = second compound 10 µM, first compound 0.1 µM
[33] = second compound 10 µM, first compound 0.316 µM
[34] = second compound 10 µM, first compound 1 µM
[35] = second compound 10 µM, first compound 3.16 µM
[36] = second compound 10 µM, first compound 10 µM
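Note: spheroids exposed to the agents for one week before reading.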
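Throughout, for viability, T/C: percent of vehicle DMSO control viability so 100% = untreated growth.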

Nc1ccn(C2OC(CO)C(O)C2(F)F)c(=O)n1 (stereo not drawn) + Cc1cnc(CNC(=O)c2c(=O)c3ccc(N4CCCN(C)CC4)nc3n3c2sc2ccccc23)cn1
IC50 (second compound 0.0316 µM): 71.2 nM
IC50 (second compound 0.1 µM): 52.6 nM
IC50 (second compound 0.316 µM): 68.4 nM
IC50 (second compound 1 µM): < 31.6 nM
IC50 (second compound 3.16 µM): < 31.6 nM
IC50 (second compound 10 µM): < 31.6 nM
viability, T/C [1]: 65.9%
viability, T/C [2]: 42.8%
viability, T/C [3]: 41.7%
viability, T/C [4]: 42.5%
viability, T/C [5]: 43.6%
viability, T/C [6]: 44.6%
viability, T/C [7]: 58.7%
viability, T/C [8]: 38.4%
viability, T/C [9]: 45.7%
viability, T/C [10]: 46.6%
viability, T/C [11]: 40%
viability, T/C [12]: 39%
viability, T/C [13]: 63.5%
viability, T/C [14]: 43.8%
viability, T/C [15]: 38.2%
viability, T/C [16]: 44.9%
viability, T/C [17]: 44.8%
viability, T/C [18]: 39.1%
viability, T/C [19]: 58.3%
viability, T/C [20]: 41.6%
viability, T/C [21]: 47.5%
viability, T/C [22]: 39.7%
viability, T/C [23]: 54.7%
viability, T/C [24]: 46.8%
viability, T/C [25]: 60.2%
viability, T/C [26]: 43.2%
viability, T/C [27]: 36.4%
viability, T/C [28]: 26.4%
viability, T/C [29]: 50.5%
viability, T/C [30]: 37%
viability, T/C [31]: 48.5%
viability, T/C [32]: 27.7%
viability, T/C [33]: 23.3%
viability, T/C [34]: 30.2%
viability, T/C [35]: 38.8%
viability, T/C [36]: 18.6%

Cn1ncnc1[C@H]1c2n[nH]c(=O)c3cc(F)cc(c23)N[C@@H]1c1ccc(F)cc1 + Cc1[nH]c2ccc(F)cc2c1-c1nc2c3cccnc3c3ncccc3c2[nH]1
IC50 (second compound 0.0316 µM): > 316 nM
IC50 (second compound 0.1 µM): > 316 nM
IC50 (second compound 0.316 µM): > 316 nM
IC50 (second compound 1 µM): > 316 nM
IC50 (second compound 3.16 µM): < 0.999 nM
IC50 (second compound 10 µM): > 316 nM
viability, T/C (second compound 0.0316 µM, first compound 0.000999 µM): 125%
viability, T/C (second compound 0.0316 µM, first compound 0.00316 µM): 86.2%
viability, T/C (second compound 0.0316 µM, first compound 0.00999 µM): 106%
viability, T/C [1]: 71.6%
viability, T/C (second compound 0.0316 µM, first compound 0.0999 µM): 80.8%
viability, T/C [3]: 83.3%
viability, T/C (second compound 0.1 µM, first compound 0.000999 µM): 103%
viability, T/C (second compound 0.1 µM, first compound 0.00316 µM): 99%
viability, T/C (second compound 0.1 µM, first compound 0.00999 µM): 78.8%
viability, T/C [7]: 70.6%
viability, T/C (second compound 0.1 µM, first compound 0.0999 µM): 93.8%
viability, T/C [9]: 73.3%
viability, T/C (second compound 0.316 µM, first compound 0.000999 µM): 78.6%
viability, T/C (second compound 0.316 µM, first compound 0.00316 µM): 79.3%
viability, T/C (second compound 0.316 µM, first compound 0.00999 µM): 76.6%
viability, T/C [13]: 72%
viability, T/C (second compound 0.316 µM, first compound 0.0999 µM): 69.7%
viability, T/C [15]: 60.4%
viability, T/C (second compound 1 µM, first compound 0.000999 µM): 63.9%
viability, T/C (second compound 1 µM, first compound 0.00316 µM): 59.2%
viability, T/C (second compound 1 µM, first compound 0.00999 µM): 66.2%
viability, T/C [19]: 56.7%
viability, T/C (second compound 1 µM, first compound 0.0999 µM): 50.9%
viability, T/C [21]: 57.7%
viability, T/C (second compound 3.16 µM, first compound 0.000999 µM): 33.1%
viability, T/C (second compound 3.16 µM, first compound 0.00316 µM): 43.8%
viability, T/C (second compound 3.16 µM, first compound 0.00999 µM): 51.1%
viability, T/C [25]: 37.9%
viability, T/C (second compound 3.16 µM, first compound 0.0999 µM): 39.6%
viability, T/C [27]: 40.3%
viability, T/C (second compound 10 µM, first compound 0.000999 µM): 64.3%
viability, T/C (second compound 10 µM, first compound 0.00316 µM): 58.9%
viability, T/C (second compound 10 µM, first compound 0.00999 µM): 64.6%
viability, T/C [31]: 53%
viability, T/C (second compound 10 µM, first compound 0.0999 µM): 55.6%
viability, T/C [33]: 51.8%

O=c1[nH]cc(F)c(=O)[nH]1 + CN(C)c1ccc(Nc2c3ccc(NC(=O)CCN4CCCC4)cc3nc3cc(NC(=O)CCN4CCCC4)ccc23)cc1
IC50 (second compound 0.0316 µM): > 10000 nM
IC50 (second compound 0.1 µM): > 10000 nM
IC50 (second compound 0.316 µM): > 10000 nM
IC50 (second compound 1 µM): > 10000 nM
IC50 (second compound 3.16 µM): > 10000 nM
IC50 (second compound 10 µM): > 10000 nM
viability, T/C [1]: 121%
viability, T/C [2]: 95%
viability, T/C [3]: 102%
viability, T/C [4]: 91.3%
viability, T/C [5]: 89.8%
viability, T/C [6]: 90.8%
viability, T/C [7]: 104%
viability, T/C [8]: 106%
viability, T/C [9]: 132%
viability, T/C [10]: 100%
viability, T/C [11]: 96.8%
viability, T/C [12]: 65.5%
viability, T/C [13]: 103%
viability, T/C [14]: 105%
viability, T/C [15]: 104%
viability, T/C [16]: 108%
viability, T/C [17]: 104%
viability, T/C [18]: 97%
viability, T/C [19]: 107%
viability, T/C [20]: 112%
viability, T/C [21]: 106%
viability, T/C [22]: 99.1%
viability, T/C [23]: 111%
viability, T/C [24]: 81.5%
viability, T/C [25]: 81%
viability, T/C [26]: 113%
viability, T/C [27]: 127%
viability, T/C [28]: 98.5%
viability, T/C [29]: 125%
viability, T/C [30]: 61.8%
viability, T/C [31]: 82.7%
viability, T/C [32]: 71.3%
viability, T/C [33]: 95.4%
viability, T/C [34]: 88.7%
viability, T/C [35]: 88.5%
viability, T/C [36]: 64%

CC(=O)O[C@H]1C(=O)[C@@]2(C)[C@H]([C@H](OC(=O)c3ccccc3)[C@]3(O)C[C@H](OC(=O)[C@H](O)[C@@H](NC(=O)c4ccccc4)c4ccccc4)C(C)=C1C3(C)C)[C@]1(OC(C)=O)CO[C@@H]1C[C@@H]2O + Cc1cnc(CNC(=O)c2c(=O)c3ccc(N4CCCN(C)CC4)nc3n3c2sc2ccccc23)cn1
IC50 (second compound 0.0316 µM): < 31.6 nM
IC50 (second compound 0.1 µM): < 31.6 nM
IC50 (second compound 0.316 µM): 533 nM
IC50 (second compound 1 µM): 7490 nM
IC50 (second compound 3.16 µM): < 31.6 nM
IC50 (second compound 10 µM): < 31.6 nM
viability, T/C [1]: 50.2%
viability, T/C [2]: 37%
viability, T/C [3]: 45.2%
viability, T/C [4]: 41.3%
viability, T/C [5]: 43.7%
viability, T/C [6]: 43.2%
viability, T/C [7]: 48.4%
viability, T/C [8]: 54.9%
viability, T/C [9]: 44.5%
viability, T/C [10]: 49.9%
viability, T/C [11]: 53.2%
viability, T/C [12]: 51.7%
viability, T/C [13]: 49%
viability, T/C [14]: 67.9%
viability, T/C [15]: 45.9%
viability, T/C [16]: 39.1%
viability, T/C [17]: 51.2%
viability, T/C [18]: 49.6%
viability, T/C [19]: 52.1%
viability, T/C [20]: 59.9%
viability, T/C [21]: 53.2%
viability, T/C [22]: 50%
viability, T/C [23]: 50%
viability, T/C [24]: 50.9%
viability, T/C [25]: 46.9%
viability, T/C [26]: 38.8%
viability, T/C [27]: 43.2%
viability, T/C [28]: 34.5%
viability, T/C [29]: 40.4%
viability, T/C [30]: 44.5%
viability, T/C [31]: 0.38%
viability, T/C [32]: 19.7%
viability, T/C [33]: 0.53%
viability, T/C [34]: 0.57%
viability, T/C [35]: 10.9%
viability, T/C [36]: 12.1%

— PubChem BioAssay AID2060506 (Molecular Pharmacology Branch, DTP, NCI, 2025)
